Results: patent publication US20100016590A1, “NILOTINIB INTERMEDIATES AND PREPARATION THEREOF” (TEVA PHARMACEUTICAL INDUSTRIES LTD., priority 2008, published 2010)
Counter-ions that a name gives are not always drawn.

Assay: Humidifying Nilotinib.3HCl: water content measured at regular intervals in a closed glass container with saturated potassium chloride solution
Format: physicochemical
Conditions: for water content (M/C) After 72 Hrs: after 72 Hrs in closed container over saturated potassium chloride solution; for water content (M/C) After 72 Hrs / water content (M/C) After 96 Hrs / M/C Initial (water content): tri hydrochloride; for water content (M/C) After 96 Hrs: after 96 Hrs in closed container over saturated potassium chloride solution; for M/C Initial (water content): before humidifying
Experimental: Weight 4.0 gms (having HPLC purity is 90%) Crude Nilotinib Tri hydrochloride in dry Petri dish and placed in to closed glass container containing (saturated Potassium chloride solution) at 20 to 25 temperature, the water content of crude Nilotinib was measured by regular interval.
Weight 4.0 gms (having HPLC purity is 97.91%) Pure Nilotinib Tri hydrochloride in dry Petri dish and placed in to closed glass container containing (saturated Potassium chloride solution) at 20 to 25 temperature, the water content of Pure Nilotinib was measured by regular interval.

Row | water content (M/C) After 24 Hrs (after 24 Hrs in closed container over saturated potassium chloride solution, 20 to 25 temperature) [%] | water content (M/C) After 48 Hrs (after 48 Hrs in closed container over saturated potassium chloride solution, 20 to 25 temperature) [%] | water content (M/C) After 72 Hrs (20 to 25 temperature) [%] | water content (M/C) After 96 Hrs (20 to 25 temperature) [%] | water content (M/C) After 120 Hrs (after 120 Hrs in closed container over saturated potassium chloride solution, 20 to 25 temperature) [%] | M/C Initial (water content) [%] | Compound
1 | 16.33 | 16.89 | 16.40 | 16.36 | 16.53 | 4.31 | Cc1cn(-c2cc(NC(=O)c3ccc(C)c(Nc4nccc(-c5cccnc5)n4)c3)cc(C(F)(F)F)c2)cn1 [Nilotinib.3HCl (crude), 3-(4-(pyridin-3-yl)pyrimidin-2-ylamino)-N-(3-(trifluoromethyl)-5-(4-methyl-1H-imidazol-1-yl)phenyl)-4-methylbenzamide tri hydrochloride]
2 |  |  | 14.90 | 14.41 |  | 4.55 | Cc1cn(-c2cc(NC(=O)c3ccc(C)c(Nc4nccc(-c5cccnc5)n4)c3)cc(C(F)(F)F)c2)cn1 [Nilotinib.3HCl (Pure), 3-(4-(pyridin-3-yl)pyrimidin-2-ylamino)-N-(3-(trifluoromethyl)-5-(4-methyl-1H-imidazol-1-yl)phenyl)-4-methylbenzamide tri hydrochloride]
